The record followed here is the NIST ThermoML archive (doi:10.1016/j.fluid.2008.10.008).

The nature of this series: activity coefficient (dimensionless); of the first substance listed, at infinite dilution; xn = mol fraction of the nth substance listed. The settings on record: 101 kPa, Liquid, Chromatography, x1 = 0.

“And” between values parts separate entries of the source, which are not always exact repeats. Equal entries are not always repeated. ± gives the expanded uncertainty stated by the source.

Regarding `C=CCCCCC` [1-heptene] + CCCC[n+]1ccc(C)cc1.Cc1ccc(S(=O)(=O)[O-])cc1, the activity coefficient was 28.7 and 29.2 (328.15 K); 29.5 and 28.2 (333.15 K); 27.2 and 27.9 (338.15 K); 28 and 27.5 (343.15 K).

`C#CCCCCC` [1-heptyne] + CCCC[n+]1ccc(C)cc1.Cc1ccc(S(=O)(=O)[O-])cc1: the activity coefficient is, setting by setting: (328.15 K) 5.76 and 5.88; (333.15 K) 6.03 and 5.9; (338.15 K) 6.01 and 5.98; (343.15 K) 6.14 and 6.

Consider `C#CCCCC` [1-hexyne] + CCCC[n+]1ccc(C)cc1.Cc1ccc(S(=O)(=O)[O-])cc1, for which the activity coefficient is, setting by setting: (328.15 K) 4.25 and 4.19; (333.15 K) 4.43 and 4.26; (338.15 K) 4.37 and 4.61; (343.15 K) 4.8 and 4.36.

In the case of `C#CCCCCCC` [1-octyne] + CCCC[n+]1ccc(C)cc1.Cc1ccc(S(=O)(=O)[O-])cc1, the activity coefficient is, setting by setting: (328.15 K) 8.01 and 8.11; (333.15 K) 8.45 and 8.13; (338.15 K) 8.27 and 8.18; (343.15 K) 8.56 and 8.3.

For the compound `C=CCCC` [1-pentene] + CCCC[n+]1ccc(C)cc1.Cc1ccc(S(=O)(=O)[O-])cc1, the activity coefficient is 16.8 and 15.3 (328.15 K); 16.1 and 14.8 (333.15 K); 15.3 and 15.5 (338.15 K); 15.7 and 14.2 (343.15 K).

As to `C#CCCC` [1-pentyne] + CCCC[n+]1ccc(C)cc1.Cc1ccc(S(=O)(=O)[O-])cc1, the activity coefficient is 3.05 and 3.09 (328.15 K); 3.37 and 3.06 (333.15 K); 3.36 and 3.2 (338.15 K); 3.38 and 3.41 (343.15 K).

In the case of `c1ccccc1` [benzene] + CCCC[n+]1ccc(C)cc1.Cc1ccc(S(=O)(=O)[O-])cc1, the activity coefficient (328.15 K) came out at 4.01 ± 0.18; the activity coefficient (333.15 K) is 3.92 and 4; the activity coefficient (338.15 K) was 3.97 and 3.95; the activity coefficient (343.15 K) was 3.94 and 3.97.

With `C1CCCCCC1` [cycloheptane] + CCCC[n+]1ccc(C)cc1.Cc1ccc(S(=O)(=O)[O-])cc1, the activity coefficient is 21.2 and 23.4 (328.15 K); 20.8 ± 1 (333.15 K); 20 ± 0.9 (338.15 K); 19.8 and 19.9 (343.15 K).

On to `C1CCCCC1` [cyclohexane] + CCCC[n+]1ccc(C)cc1.Cc1ccc(S(=O)(=O)[O-])cc1, for which the activity coefficient is, setting by setting: (328.15 K) 18.6 and 20.6; (333.15 K) 18 and 18.1; (338.15 K) 17.5 ± 0.8; (343.15 K) 16.9 and 17.

`C1CCCCCCC1` [cyclooctane] + CCCC[n+]1ccc(C)cc1.Cc1ccc(S(=O)(=O)[O-])cc1: the activity coefficient (328.15 K) was 26.2 and 28.4; the activity coefficient (333.15 K) was 25.2 and 25; the activity coefficient (338.15 K) was 23.7 and 24.6; the activity coefficient (343.15 K) was 23.6 and 24.5.

Turning to `C1CCCC1` [cyclopentane] + CCCC[n+]1ccc(C)cc1.Cc1ccc(S(=O)(=O)[O-])cc1, the activity coefficient reads like this: (328.15 K) 13.6 and 12.5; (333.15 K) 12.4 and 12.8; (338.15 K) 11.7 and 12; (343.15 K) 11.9 and 11.7.

Consider `CCO` [ethanol] + CCCC[n+]1ccc(C)cc1.Cc1ccc(S(=O)(=O)[O-])cc1, for which the activity coefficient runs as follows: (328.15 K) 0.905 and 0.893; (333.15 K) 0.895 and 0.881; (338.15 K) 0.88 and 0.87; (343.15 K) 0.871 and 0.863.

As for `CCCCCCC` [heptane] + CCCC[n+]1ccc(C)cc1.Cc1ccc(S(=O)(=O)[O-])cc1, the activity coefficient is 53 and 55 (328.15 K); 51.8 and 51 (333.15 K); 50.6 and 50.4 (338.15 K); 49.3 and 49.5 (343.15 K).

As for `C=CCCCC` [hex-1-ene] + CCCC[n+]1ccc(C)cc1.Cc1ccc(S(=O)(=O)[O-])cc1, the activity coefficient is 21.2 and 21.1 (328.15 K); 20.7 and 20.1 (333.15 K); 20.3 and 19.5 (338.15 K); 20 and 20.1 (343.15 K).

With `CCCCCC` [hexane] + CCCC[n+]1ccc(C)cc1.Cc1ccc(S(=O)(=O)[O-])cc1, the activity coefficient is, setting by setting: (328.15 K) 37.3 and 38.9; (333.15 K) 37.2 ± 1.7; (338.15 K) 36 ± 1.7; (343.15 K) 36.9 and 37.1.

Regarding `CO` [methanol] + CCCC[n+]1ccc(C)cc1.Cc1ccc(S(=O)(=O)[O-])cc1, the activity coefficient runs as follows: (328.15 K) 0.555 and 0.542; (333.15 K) 0.545 and 0.542; (338.15 K) 0.541 and 0.536; (343.15 K) 0.548 and 0.527.

As for `C=CCCCCCC` [oct-1-ene] + CCCC[n+]1ccc(C)cc1.Cc1ccc(S(=O)(=O)[O-])cc1, the activity coefficient (328.15 K) is 39.7 and 40.6; the activity coefficient (333.15 K) was 39.7 and 39.2; the activity coefficient (338.15 K) was 38.7 and 38.9; the activity coefficient (343.15 K) was 37.8 and 38.

Consider `CCCCCCCC` [octane] + CCCC[n+]1ccc(C)cc1.Cc1ccc(S(=O)(=O)[O-])cc1, for which the activity coefficient was 71.6 and 75.8 (328.15 K); 71.3 and 70.6 (333.15 K); 67.8 and 68.4 (338.15 K); 68.7 and 68.9 (343.15 K).

As to `CCCCC` [pentane] + CCCC[n+]1ccc(C)cc1.Cc1ccc(S(=O)(=O)[O-])cc1, the activity coefficient was 27.6 and 28.7 (328.15 K); 27.5 and 27.8 (333.15 K); 27.7 and 27.8 (338.15 K); 27.3 and 27.4 (343.15 K).
